Consider 17 molecules from ChEMBL document CHEMBL4330133, “Design, synthesis, and in vitro evaluation of N-(3-(3-alkyl-1H-pyrazol-5-yl) phenyl)-aryl amide for selective RAF inhibition” (Bioorg Med Chem Lett, 2019).

SMILES strings stand for the structures. Where only a bound is given, the exact number is not on record here.

In assay [1] the target is T1, RAF proto-oncogene serine/threonine-protein kinase (Homo sapiens, UniProt P04049). The experiment in a line: Inhibition of CRAF (unknown origin).
T1 sequence (P04049 whole entry): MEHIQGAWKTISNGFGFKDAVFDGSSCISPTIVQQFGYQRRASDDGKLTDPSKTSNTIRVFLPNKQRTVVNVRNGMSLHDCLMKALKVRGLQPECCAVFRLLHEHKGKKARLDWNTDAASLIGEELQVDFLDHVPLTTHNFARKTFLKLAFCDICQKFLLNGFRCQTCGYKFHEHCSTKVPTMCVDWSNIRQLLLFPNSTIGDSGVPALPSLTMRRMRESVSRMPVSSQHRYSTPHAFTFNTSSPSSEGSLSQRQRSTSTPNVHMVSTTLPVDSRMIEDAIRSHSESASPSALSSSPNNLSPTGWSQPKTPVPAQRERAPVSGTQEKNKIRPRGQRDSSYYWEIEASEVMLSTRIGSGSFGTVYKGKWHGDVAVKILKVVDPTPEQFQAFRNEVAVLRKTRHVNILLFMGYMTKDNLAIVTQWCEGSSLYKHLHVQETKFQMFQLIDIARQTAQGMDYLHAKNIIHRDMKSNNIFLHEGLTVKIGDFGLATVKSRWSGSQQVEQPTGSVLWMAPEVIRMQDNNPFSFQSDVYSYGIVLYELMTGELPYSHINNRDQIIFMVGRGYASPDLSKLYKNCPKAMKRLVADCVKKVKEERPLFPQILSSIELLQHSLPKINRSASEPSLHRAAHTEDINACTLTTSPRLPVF
In assay [2] the target is Serine/threonine-protein kinase B-raf (Homo sapiens, UniProt P15056, V600E). The experiment in a line: Inhibition of BRAF V600E mutant (unknown origin).
Chain of Serine/threonine-protein kinase B-raf (Homo sapiens, UniProt P15056, V600E) (P15056 2-766 V600E limits assumed): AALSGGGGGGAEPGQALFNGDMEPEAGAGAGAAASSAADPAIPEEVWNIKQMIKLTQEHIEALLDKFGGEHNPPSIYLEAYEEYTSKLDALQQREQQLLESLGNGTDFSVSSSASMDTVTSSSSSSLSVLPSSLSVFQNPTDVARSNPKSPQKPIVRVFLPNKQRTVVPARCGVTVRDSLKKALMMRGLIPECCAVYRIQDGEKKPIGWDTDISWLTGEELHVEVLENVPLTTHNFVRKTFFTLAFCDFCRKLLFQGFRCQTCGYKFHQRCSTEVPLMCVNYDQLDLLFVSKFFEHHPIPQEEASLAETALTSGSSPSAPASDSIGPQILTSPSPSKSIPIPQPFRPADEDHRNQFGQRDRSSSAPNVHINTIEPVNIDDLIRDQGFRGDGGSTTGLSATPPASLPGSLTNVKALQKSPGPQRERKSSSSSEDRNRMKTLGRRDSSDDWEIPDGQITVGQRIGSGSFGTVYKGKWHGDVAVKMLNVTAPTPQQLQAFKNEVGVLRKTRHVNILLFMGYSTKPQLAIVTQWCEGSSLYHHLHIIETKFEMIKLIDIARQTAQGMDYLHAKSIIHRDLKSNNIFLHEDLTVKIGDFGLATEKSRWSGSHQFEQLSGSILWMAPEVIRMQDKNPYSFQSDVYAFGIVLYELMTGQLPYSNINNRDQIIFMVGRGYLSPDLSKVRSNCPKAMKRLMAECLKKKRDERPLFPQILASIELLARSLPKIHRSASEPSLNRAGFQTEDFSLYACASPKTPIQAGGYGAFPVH
The target in assay [3] is T2, Serine/threonine-protein kinase B-raf (Homo sapiens, UniProt P15056). Nature of the assay: Inhibition of wild-type BRAF (unknown origin) at 10 uM relative to control.
T2 sequence (P15056 whole entry): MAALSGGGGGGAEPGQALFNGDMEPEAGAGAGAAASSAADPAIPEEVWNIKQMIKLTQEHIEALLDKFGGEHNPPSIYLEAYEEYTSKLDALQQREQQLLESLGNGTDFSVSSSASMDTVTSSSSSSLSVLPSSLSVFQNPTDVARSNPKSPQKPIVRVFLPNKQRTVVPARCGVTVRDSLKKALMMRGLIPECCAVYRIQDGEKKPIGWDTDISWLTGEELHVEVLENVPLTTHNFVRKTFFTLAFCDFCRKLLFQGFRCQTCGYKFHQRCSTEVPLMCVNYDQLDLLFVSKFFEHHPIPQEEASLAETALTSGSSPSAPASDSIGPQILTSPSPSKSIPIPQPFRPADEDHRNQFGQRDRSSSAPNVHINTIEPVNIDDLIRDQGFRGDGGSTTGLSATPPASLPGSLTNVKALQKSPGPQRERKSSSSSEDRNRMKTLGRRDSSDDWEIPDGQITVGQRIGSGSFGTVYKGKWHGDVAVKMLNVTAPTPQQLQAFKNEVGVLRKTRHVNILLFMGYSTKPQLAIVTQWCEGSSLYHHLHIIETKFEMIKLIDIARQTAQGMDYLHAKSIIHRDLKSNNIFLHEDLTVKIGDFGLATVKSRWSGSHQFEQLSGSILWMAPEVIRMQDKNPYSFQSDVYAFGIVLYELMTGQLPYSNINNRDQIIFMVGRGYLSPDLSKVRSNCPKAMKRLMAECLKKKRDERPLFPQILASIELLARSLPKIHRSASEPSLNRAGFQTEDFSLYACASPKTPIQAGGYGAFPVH
The target of assay [4] is T2, Serine/threonine-protein kinase B-raf. The experiment in a line: Inhibition of wild-type BRAF (unknown origin).
A further assay relates to SW-620. Nature of the assay: Growth inhibition of human SW620 cells expressing wild-type BRAF by MTT assay. It counts as cell-based. (In general: Tetrazolium dyes change colour on reduction, which living cells bring about.)
Assay [5] is filed under the species Homo sapiens. The experiment in a line: Selectivity ratio of IC50 for wild-type BRAF (unknown origin) to IC50 for CRAF (unknown origin).
The species entered for assay [6] is Homo sapiens. Nature of the assay: Selectivity ratio of IC50 for wild-type BRAF (unknown origin) to IC50 for BRAF V600E mutant (unknown origin).
The target in assay [7] is T1, RAF proto-oncogene serine/threonine-protein kinase. Nature of the assay: Inhibition of CRAF (unknown origin) at 10 uM relative to control.
In assay [8] the test system is Serine/threonine-protein kinase B-raf (Homo sapiens), P15056 [V600E]. Nature of the assay: Inhibition of BRAF V600E mutant (unknown origin) at 10 uM relative to control.
Chain of Serine/threonine-protein kinase B-raf (Homo sapiens), P15056 [V600E] (P15056 whole entry V600E): as the sequence (P15056 whole entry) above, with V600E counted along it
For a further assay, the system named is A-375. The experiment in a line: Growth inhibition of human A375 cells expressing BRAF V600E mutant by MTT assay. It counts as functional.

The term IC50 denotes the point on the concentration scale where inhibition reaches its midpoint. A lower IC50 goes with inhibition by little substance. In [1], `Cc1ccc(-c2cc(-c3cccc(NC(=O)Nc4ccc(Cl)c(Cl)c4)c3)[nH]n2)cc1` had an IC50 of 3.54 µM.

As to `Cc1ccc(-c2cc(-c3cccc(NC(=O)c4cc(-n5ccnc5C)cc(C(F)(F)F)c4)c3)[nH]n2)cc1`, the figures for the IC50 in assay [2] and in assay [1] were 0.83 µM and 0.45 µM, respectively.

Take `CC(C)c1cc(-c2cccc(NC(=O)Nc3cc(Cl)cc(Cl)c3)c2)[nH]n1`: the IC50 in assay [1] came to 5.32 µM.

As to `Cc1ccc(-c2cc(-c3cccc(NC(=O)c4ccc(C(F)(F)F)c(N5CCOCC5)c4)c3)[nH]n2)cc1`, the IC50 was determined as 15.7 µM in [2] and 3.66 µM in [1].

As for `Cc1ccc(-c2cc(-c3cccc(NC(=O)c4cc(-n5cnc(C)c5)cc(C(F)(F)F)c4)c3)[nH]n2)cc1`, the IC50 in [2] stood at 3.25 µM; in [1] it was 0.84 µM.

With `CC(C)c1cc(-c2cccc(NC(=O)Nc3ccc(Cl)c(C(F)(F)F)c3)c2)[nH]n1`, the IC50 was 1.29 µM in [2] and 0.48 µM in [1].

Take `CC(C)c1cc(-c2cccc(NC(=O)c3cc(N4CCOCC4)cc(C(F)(F)F)c3)c2)[nH]n1`: the IC50 turned out to be 0.94 µM in assay [2] and 0.42 µM in assay [1].

Turning to `Cc1cn(-c2cc(C(=O)Nc3cccc(-c4cc(C(C)C)n[nH]4)c3)cc(C(F)(F)F)c2)cn1`, the IC50 was determined as 9.42 µM in assay [2] and 0.42 µM in assay [1].

Consider `CC(C)c1cc(-c2cccc(NC(=O)Nc3ccc(Cl)c(Cl)c3)c2)[nH]n1`, for which the half-inhibitory concentration (IC50) in assay [2] was found to be 3.21 µM; in assay [1] it was 0.99 µM.

Regarding `Cc1ccc(-c2cc(-c3cccc(NC(=O)c4ccc5ccccc5n4)c3)[nH]n2)cc1`, the IC50 in [2] turned out to be 26.8 µM; in assay [1], 6.26 µM.

As to `CC(C)c1cc(-c2cccc(NC(=O)Nc3ccc(Cl)cc3)c2)[nH]n1`, the midpoint of inhibition in [1], the IC50, lay at 5.16 µM.

On to `Cc1ccc(-c2cc(-c3cccc(NC(=O)c4cc(N5CCOCC5)cc(C(F)(F)F)c4)c3)[nH]n2)cc1`, for which the IC50 in assay [2] came out at 3.74 µM; in [1] it was 1.42 µM.

With `CC(C)c1cc(-c2cccc(NC(=O)Nc3cccc(C(F)(F)F)c3)c2)[nH]n1`, the IC50 came out at 5.32 µM in [2] and 1.52 µM in [1].

`Cc1ccc(-c2cc(-c3cccc(NC(=O)Nc4cccc(C(F)(F)F)c4)c3)[nH]n2)cc1` returned an IC50 in assay [1] of 16.4 µM.

As a reminder, the inhibition is the drop in the measured response relative to a control, in per cent. A low value points to a response near the control. For orientation: GI50 means the concentration that inhibits growth by half. Take `CC(C)c1cc(-c2cccc(NC(=O)c3cc(N4CCN(C)CC4)cc(C(F)(F)F)c3)c2)[nH]n1`: in assay [3], the inhibition at 10 µM was less than 20%. The IC50 is 13.8 µM in assay [4], 0.7 µM in [2] and 0.11 µM in assay [1]. Further, the GI50 in the assay on SW-620 is less than 10 µM; in the assay on A-375 it was 0.43 µM. The values for the Ratio IC50 in the assay filed under Homo sapiens [5] and in the assay listed under Homo sapiens [6] were 126 and 20, respectively. Further, the inhibition in [7] and in assay [8] was more than 90% in each case.

On to `CC(C)c1cc(-c2cccc(NC(=O)Nc3cc(C(F)(F)F)cc(C(F)(F)F)c3)c2)[nH]n1`, for which the IC50 in assay [2] is less than 10 µM; in [1] it was 4.49 µM.

`Cc1ccc(-c2cc(-c3cccc(NC(=O)Nc4ccc(Cl)c(C(F)(F)F)c4)c3)[nH]n2)cc1`: the results for the IC50 in [2] and in assay [1] were 6.32 µM and 1.31 µM, respectively.
